Source: ChEMBL document CHEMBL3576815, “Tankyrase 1 Inhibitors with Drug-like Properties Identified by Screening a DNA-Encoded Chemical Library” (J Med Chem, 2015)

Assays:
[1] = molecular target: T1, Protein mono-ADP-ribosyltransferase PARP10 (Homo sapiens, UniProt Q53GL7); assay: Inhibition of full length PARP10 (unknown origin) expressed in Escherichia coli BL21 (DE3) assessed as reduction in ADP-ribosyl transferase activity using NAD+ by chemiluminescence detection based assay
T1 sequence (Q53GL7 whole entry): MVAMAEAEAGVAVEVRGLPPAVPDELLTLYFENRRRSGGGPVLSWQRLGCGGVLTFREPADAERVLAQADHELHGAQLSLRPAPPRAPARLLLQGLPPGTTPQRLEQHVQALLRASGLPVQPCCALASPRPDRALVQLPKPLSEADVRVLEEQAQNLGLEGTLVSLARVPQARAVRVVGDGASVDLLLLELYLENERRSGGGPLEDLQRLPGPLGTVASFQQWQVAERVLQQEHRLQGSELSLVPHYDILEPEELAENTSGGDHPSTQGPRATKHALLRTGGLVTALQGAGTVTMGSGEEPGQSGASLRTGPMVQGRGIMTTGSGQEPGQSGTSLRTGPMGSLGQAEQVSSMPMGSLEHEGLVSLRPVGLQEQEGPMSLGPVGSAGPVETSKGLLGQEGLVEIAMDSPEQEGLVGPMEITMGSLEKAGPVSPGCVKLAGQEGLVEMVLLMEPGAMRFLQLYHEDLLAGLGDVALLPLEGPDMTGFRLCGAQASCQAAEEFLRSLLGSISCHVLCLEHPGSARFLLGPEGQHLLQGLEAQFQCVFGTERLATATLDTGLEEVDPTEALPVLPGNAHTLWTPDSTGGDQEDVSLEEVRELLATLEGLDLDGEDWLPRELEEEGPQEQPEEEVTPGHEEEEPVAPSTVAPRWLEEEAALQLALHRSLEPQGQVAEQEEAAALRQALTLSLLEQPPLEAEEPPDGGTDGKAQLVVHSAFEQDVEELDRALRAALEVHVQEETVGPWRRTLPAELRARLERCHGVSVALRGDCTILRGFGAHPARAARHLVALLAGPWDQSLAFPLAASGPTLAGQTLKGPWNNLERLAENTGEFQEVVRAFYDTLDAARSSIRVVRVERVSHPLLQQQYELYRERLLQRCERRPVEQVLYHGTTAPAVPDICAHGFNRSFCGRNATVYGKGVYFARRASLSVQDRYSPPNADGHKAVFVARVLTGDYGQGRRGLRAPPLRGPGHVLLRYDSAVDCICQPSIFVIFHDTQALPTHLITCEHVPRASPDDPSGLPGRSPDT

[2] = molecular target: T2, Poly [ADP-ribose] polymerase tankyrase-1 (Homo sapiens, UniProt O95271); assay: Inhibition of hexa-histidine tagged recombinant tankyrase 1 biotinylated catalytic domain (amino acids 1106 to 1325) (unknown origin) expressed in Escherichia coli BL21 (DE3) assessed as reduction in ADP-ribosyl transferase activity using NAD+ by chemiluminescence detection based assay
T2 sequence (O95271 whole entry): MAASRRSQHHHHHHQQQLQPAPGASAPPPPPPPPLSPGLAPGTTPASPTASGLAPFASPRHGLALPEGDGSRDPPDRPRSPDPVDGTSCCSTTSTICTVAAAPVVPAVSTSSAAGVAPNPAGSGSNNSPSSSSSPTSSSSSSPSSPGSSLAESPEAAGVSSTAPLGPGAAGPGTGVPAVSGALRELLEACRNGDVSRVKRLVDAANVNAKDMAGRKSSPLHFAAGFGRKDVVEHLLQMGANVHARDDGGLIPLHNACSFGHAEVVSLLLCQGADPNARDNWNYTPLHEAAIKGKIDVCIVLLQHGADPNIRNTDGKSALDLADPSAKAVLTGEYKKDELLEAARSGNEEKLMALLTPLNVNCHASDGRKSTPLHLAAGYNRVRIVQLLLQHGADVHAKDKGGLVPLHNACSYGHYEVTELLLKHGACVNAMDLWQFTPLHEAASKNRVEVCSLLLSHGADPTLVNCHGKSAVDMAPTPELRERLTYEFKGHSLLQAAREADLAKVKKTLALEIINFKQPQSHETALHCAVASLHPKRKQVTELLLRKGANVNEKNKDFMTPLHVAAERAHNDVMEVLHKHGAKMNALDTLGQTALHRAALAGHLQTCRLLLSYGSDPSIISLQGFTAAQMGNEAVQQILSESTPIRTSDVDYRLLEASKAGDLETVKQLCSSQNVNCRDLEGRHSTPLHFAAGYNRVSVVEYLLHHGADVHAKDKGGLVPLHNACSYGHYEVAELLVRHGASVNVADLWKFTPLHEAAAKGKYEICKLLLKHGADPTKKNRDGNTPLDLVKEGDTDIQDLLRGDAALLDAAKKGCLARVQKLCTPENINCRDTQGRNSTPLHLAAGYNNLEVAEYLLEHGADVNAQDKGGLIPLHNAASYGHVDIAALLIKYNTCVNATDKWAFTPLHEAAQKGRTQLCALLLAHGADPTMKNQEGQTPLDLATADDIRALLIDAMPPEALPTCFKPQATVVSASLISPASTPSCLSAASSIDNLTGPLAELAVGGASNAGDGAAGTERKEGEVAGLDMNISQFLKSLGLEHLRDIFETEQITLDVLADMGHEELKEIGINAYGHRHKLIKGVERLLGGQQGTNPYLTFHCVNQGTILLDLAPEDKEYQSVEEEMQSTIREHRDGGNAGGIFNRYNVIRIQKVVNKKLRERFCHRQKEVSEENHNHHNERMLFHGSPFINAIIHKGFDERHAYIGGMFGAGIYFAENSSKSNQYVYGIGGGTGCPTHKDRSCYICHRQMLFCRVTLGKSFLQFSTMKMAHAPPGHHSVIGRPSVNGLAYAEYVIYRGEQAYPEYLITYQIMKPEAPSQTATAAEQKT

[3] = molecular target: Poly [ADP-ribose] polymerase 1 (Homo sapiens, UniProt P09874); assay: Inhibition of full length PARP1 (unknown origin) expressed in Escherichia coli BL21 (DE3) assessed as reduction in ADP-ribosyl transferase activity using NAD+ by chemiluminescence detection based assay
[4] = molecular target: T3, Poly [ADP-ribose] polymerase tankyrase-2 (Homo sapiens, UniProt Q9H2K2); assay: Inhibition of tankyrase 2 catalytic domain (unknown origin) expressed in Escherichia coli BL21 (DE3) assessed as reduction in ADP-ribosyl transferase activity using NAD+ by chemiluminescence detection based assay
T3 sequence (Q9H2K2 whole entry): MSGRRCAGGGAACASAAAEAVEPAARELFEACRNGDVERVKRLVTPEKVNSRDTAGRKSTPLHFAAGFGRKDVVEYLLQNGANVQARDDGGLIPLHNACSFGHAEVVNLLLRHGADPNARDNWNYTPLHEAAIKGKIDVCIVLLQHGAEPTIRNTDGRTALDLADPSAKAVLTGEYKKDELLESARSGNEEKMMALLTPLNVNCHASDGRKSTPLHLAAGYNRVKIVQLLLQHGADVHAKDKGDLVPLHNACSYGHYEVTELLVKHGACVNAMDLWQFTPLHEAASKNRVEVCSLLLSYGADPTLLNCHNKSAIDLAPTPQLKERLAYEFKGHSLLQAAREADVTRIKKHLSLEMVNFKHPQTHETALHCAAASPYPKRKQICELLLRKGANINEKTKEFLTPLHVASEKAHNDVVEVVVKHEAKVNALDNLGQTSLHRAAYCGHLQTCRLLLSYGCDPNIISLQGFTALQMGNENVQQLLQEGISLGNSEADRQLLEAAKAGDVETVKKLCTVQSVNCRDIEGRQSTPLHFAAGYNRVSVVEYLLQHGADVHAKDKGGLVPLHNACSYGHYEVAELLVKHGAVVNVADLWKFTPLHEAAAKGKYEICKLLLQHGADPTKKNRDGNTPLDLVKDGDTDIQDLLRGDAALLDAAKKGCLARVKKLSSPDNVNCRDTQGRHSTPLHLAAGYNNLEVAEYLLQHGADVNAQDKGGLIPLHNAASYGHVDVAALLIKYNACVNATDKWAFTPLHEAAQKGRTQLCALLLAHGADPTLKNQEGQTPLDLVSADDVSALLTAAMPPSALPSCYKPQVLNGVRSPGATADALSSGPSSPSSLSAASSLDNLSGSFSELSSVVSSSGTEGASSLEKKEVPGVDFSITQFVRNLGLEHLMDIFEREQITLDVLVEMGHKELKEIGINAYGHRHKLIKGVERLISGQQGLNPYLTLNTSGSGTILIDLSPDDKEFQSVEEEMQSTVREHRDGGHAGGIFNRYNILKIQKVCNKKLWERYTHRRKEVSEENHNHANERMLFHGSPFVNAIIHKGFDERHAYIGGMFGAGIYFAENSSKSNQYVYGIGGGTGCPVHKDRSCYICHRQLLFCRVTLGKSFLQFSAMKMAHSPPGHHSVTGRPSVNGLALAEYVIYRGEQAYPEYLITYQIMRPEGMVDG

Sequence of Poly [ADP-ribose] polymerase 1 (P09874 whole entry, the tested form may be a part): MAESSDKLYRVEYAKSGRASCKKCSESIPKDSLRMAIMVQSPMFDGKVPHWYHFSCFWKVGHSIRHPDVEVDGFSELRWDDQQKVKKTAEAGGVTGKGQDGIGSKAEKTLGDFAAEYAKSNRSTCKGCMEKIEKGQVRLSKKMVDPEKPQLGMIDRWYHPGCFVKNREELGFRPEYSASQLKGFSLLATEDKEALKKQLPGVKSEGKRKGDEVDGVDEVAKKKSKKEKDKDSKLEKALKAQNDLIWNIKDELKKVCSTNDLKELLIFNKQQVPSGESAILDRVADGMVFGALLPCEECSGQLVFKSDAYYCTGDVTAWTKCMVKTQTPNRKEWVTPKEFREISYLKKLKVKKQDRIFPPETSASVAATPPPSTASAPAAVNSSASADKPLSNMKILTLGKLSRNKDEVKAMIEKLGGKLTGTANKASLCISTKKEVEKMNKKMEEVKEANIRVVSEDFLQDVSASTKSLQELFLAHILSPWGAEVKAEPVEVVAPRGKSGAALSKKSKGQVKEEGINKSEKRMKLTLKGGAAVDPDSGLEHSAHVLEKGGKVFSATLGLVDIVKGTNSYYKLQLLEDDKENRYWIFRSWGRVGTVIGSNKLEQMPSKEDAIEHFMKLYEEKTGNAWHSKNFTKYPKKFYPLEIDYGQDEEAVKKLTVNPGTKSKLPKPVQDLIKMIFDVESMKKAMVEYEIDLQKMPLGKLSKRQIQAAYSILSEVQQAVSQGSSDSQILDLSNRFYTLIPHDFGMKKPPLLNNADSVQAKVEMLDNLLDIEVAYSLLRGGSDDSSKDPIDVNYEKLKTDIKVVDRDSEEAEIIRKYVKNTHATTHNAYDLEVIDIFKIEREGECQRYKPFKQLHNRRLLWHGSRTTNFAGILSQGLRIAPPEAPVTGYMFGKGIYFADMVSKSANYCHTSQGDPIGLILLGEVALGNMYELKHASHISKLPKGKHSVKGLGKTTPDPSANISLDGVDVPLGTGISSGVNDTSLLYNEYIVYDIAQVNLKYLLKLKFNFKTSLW

O=C1CCN(c2ccccc2C(=O)NCCc2nc(-c3ccccn3)no2)C(=O)N1
IC50 [1]: 2.2 µM | IC50 [2]: 250 nM | IC50 [3]: 260 nM | IC50 ([4]; read-out: IC50): 8100 nM | IC50 ([4]; read-out: pIC50 (converted)): 8130 nM

O=C1CCN(c2ccccc2C(=O)NCc2ccc(-n3cccn3)cc2)C(=O)N1
IC50 [1]: > 50 µM | IC50 [2]: 330 nM | IC50 [3]: 220 nM | IC50 ([4]; read-out: IC50): 8300 nM | IC50 ([4]; read-out: pIC50 (converted)): 8320 nM

O=C1CCN(c2ccccc2C(=O)NCCc2ccc(Cl)cc2Cl)C(=O)N1
IC50 [1]: > 50 µM | IC50 [2]: 700 nM | IC50 [3]: 110 nM

O=C1CCN(c2ccccc2C(=O)NCCc2ccc(Br)cc2)C(=O)N1
IC50 [1]: > 50 µM | IC50 [2]: 350 nM | IC50 ([4]; read-out: IC50): 910 nM | IC50 ([4]; read-out: pIC50 (converted)): 912 nM

O=C1CCN(c2ccccc2C(=O)NCCc2ccc(Cl)cc2)C(=O)N1
IC50 [1]: > 50 µM | IC50 [2]: 570 nM | IC50 ([4]; read-out: IC50): 2400 nM | IC50 ([4]; read-out: pIC50 (converted)): 2400 nM

O=C1CCN(c2ccccc2C(=O)NCCc2ccccc2)C(=O)N1
IC50 [2]: 4600 nM

CN(Cc1ccc(-n2cccn2)cc1)C(=O)c1ccccc1N1CCC(=O)NC1=O
IC50 [2]: 2500 nM

COc1ccc2c(c1)C(CC(=O)N[C@@H](CNC(=O)c1ccccc1N1CCC(=O)NC1=O)C(N)=O)CC2=O (some centres not stated)
IC50 [1]: > 50 µM | IC50 [2]: 370 nM | IC50 [3]: 28 nM | IC50 ([4]; read-out: IC50): 470 nM | IC50 ([4]; read-out: pIC50 (converted)): 468 nM

COc1ccc2c(c1)C(CC(=O)NCCNC(=O)c1ccccc1N1CCC(=O)NC1=O)CC2=O (configuration not stated)
IC50 [2]: 290 nM | IC50 [3]: 41 nM | IC50 ([4]; read-out: IC50): 7900 nM | IC50 ([4]; read-out: pIC50 (converted)): 7940 nM

COc1ccc2c(c1)C(CC(=O)N1CCN(C(=O)c3ccccc3N3CCC(=O)NC3=O)CC1)CC2=O (configuration not stated)
IC50 [1]: 34 µM | IC50 [2]: 290 nM | IC50 [3]: 200 nM | IC50 ([4]; read-out: IC50): 330 nM | IC50 ([4]; read-out: pIC50 (converted)): 331 nM
